Calls of active or inactive are those of the source.
Assays:
MCF-10A = assay: Cytotoxicity against human MCF10A cells assessed as cell viability up to 15 uM measured after 5 days by CCK-8 assay; type: toxicity, cell-based; conditions: 120 h, time 5 day
PC-3 = assay: Inhibition of sDMA (symmetric dimethylarginine) level in human PC-3 cells at 2 uM measured after 7 days by Western blot analysis; type: functional, cell-based; conditions: time 7.0 day
[1] = Cmax in Swiss albino mouse plasma at 50 mg/kg, ip measured after 0.5 hrs by LC-MS/MS analysis; type: ADME, organism-based; conditions: in vivo
[2] = target: T1, von Hippel-Lindau disease tumor suppressor/Methylosome protein WDR77 (Homo sapiens, UniProt Q9BQA1+P40337); assay: PROTAC activity at MEP50/VHL in human MDA-MB-231 cells assessed as degradation at 5 uM after 3 days by Western blot analysis; type: cell-based; conditions: time 3.0 day
T1 sequence (P40337 whole entry, looked up): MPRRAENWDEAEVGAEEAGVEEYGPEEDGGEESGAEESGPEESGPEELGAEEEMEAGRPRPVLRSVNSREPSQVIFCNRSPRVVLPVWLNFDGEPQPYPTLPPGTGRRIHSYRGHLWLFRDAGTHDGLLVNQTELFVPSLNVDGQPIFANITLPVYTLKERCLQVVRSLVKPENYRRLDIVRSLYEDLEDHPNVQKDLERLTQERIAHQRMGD
T1 sequence (Q9BQA1 whole entry, looked up): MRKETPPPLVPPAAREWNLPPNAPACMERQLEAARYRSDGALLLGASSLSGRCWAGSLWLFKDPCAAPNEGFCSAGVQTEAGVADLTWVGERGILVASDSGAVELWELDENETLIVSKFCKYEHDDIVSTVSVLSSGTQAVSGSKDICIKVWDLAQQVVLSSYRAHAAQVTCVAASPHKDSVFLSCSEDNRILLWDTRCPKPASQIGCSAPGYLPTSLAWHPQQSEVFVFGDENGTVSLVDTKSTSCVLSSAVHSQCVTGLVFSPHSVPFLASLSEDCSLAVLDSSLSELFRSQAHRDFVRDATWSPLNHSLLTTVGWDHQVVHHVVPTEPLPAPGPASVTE

[3] = target: T2, von Hippel-Lindau disease tumor suppressor/Protein arginine N-methyltransferase 5 (Homo sapiens, UniProt O14744+P40337); assay: PROTAC activity at PRMT5/VHL in human MDA-MB-453 cells assessed as degradation at 5 uM after 3 days by Western blot analysis; type: cell-based; conditions: time 3.0 day
T2 sequence (O14744 whole entry, looked up): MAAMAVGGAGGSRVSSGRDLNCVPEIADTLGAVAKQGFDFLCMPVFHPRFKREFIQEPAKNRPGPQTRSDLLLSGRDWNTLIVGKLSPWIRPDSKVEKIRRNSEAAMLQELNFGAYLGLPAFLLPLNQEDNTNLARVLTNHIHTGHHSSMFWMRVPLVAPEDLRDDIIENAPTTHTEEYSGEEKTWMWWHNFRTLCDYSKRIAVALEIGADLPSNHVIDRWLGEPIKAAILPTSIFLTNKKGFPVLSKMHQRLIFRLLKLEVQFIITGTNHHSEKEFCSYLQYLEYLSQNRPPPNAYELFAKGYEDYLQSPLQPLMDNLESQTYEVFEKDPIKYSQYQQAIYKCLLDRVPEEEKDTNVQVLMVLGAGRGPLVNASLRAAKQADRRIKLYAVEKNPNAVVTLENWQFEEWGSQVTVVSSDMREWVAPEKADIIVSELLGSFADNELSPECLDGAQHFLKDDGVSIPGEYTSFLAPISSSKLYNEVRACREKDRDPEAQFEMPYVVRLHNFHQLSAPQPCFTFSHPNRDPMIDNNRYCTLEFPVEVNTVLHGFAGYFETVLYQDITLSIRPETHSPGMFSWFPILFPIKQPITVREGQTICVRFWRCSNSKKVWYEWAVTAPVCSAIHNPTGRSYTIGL
T2 sequence (P40337 whole entry, looked up): as the sequence (P40337 whole entry, looked up) above

[4] = target: T2, von Hippel-Lindau disease tumor suppressor/Protein arginine N-methyltransferase 5; assay: PROTAC activity at PRMT5/VHL in human PC-3 cells assessed as degradation at 0.004 to 2.5 uM after 7 hrs by Western blot analysis; type: cell-based; conditions: dose 0.004-2.5 µM
[5] = target: T1, von Hippel-Lindau disease tumor suppressor/Methylosome protein WDR77; assay: PROTAC activity at MEP50/VHL in human MDA-MB-231 cells assessed as degradation at 0.5 uM after 3 days by Western blot analysis; type: cell-based; conditions: time 3.0 day
[6] = target: T2, von Hippel-Lindau disease tumor suppressor/Protein arginine N-methyltransferase 5; assay: PROTAC activity at PRMT5/VHL in human MDA-MB-468 cells assessed as degradation pretreated with MLN4924 neddylation inhibitor followed by treated at 5 uM of compound after 24 hrs by Western blot analysis; type: cell-based
[7] = Plasma concentration in Swiss albino mouse at 50 mg/kg, ip measured after 8 hrs by LC-MS/MS analysis; type: ADME, organism-based
[8] = target: T2, von Hippel-Lindau disease tumor suppressor/Protein arginine N-methyltransferase 5; assay: PROTAC activity at PRMT5/VHL in human MCF7 cells assessed as degradation at 0.5 uM after 3 days by Western blot analysis; type: cell-based; conditions: time 3.0 day
[9] = target: T1, von Hippel-Lindau disease tumor suppressor/Methylosome protein WDR77; assay: PROTAC activity at MEP50/VHL in human MCF7 cells assessed as degradation at 0.5 uM after 3 days by Western blot analysis; type: cell-based; conditions: time 3.0 day
[10] = target: T2, von Hippel-Lindau disease tumor suppressor/Protein arginine N-methyltransferase 5; assay: PROTAC activity at PRMT5/VHL in VHL KO human MDA-MB-468 cells assessed as degradation at 0.5 uM of compound after 24 hrs by Western blot analysis; type: cell-based
[11] = target: T2, von Hippel-Lindau disease tumor suppressor/Protein arginine N-methyltransferase 5; assay: PROTAC activity at PRMT5/VHL in human MDA-MB-468 cells assessed as degradation pretreated with VHL-1 followed by treated at 5 uM of compound after 24 hrs by Western blot analysis; type: cell-based
[12] = target: T1, von Hippel-Lindau disease tumor suppressor/Methylosome protein WDR77; assay: PROTAC activity at MEP50/VHL in human MCF7 cells assessed as degradation at 5 uM after 3 days by Western blot analysis; type: cell-based; conditions: time 3.0 day
MDA-MB-231 = assay: Growth inhibition of human MDA-MB-231 cells assessed as cell viability measured after 5 days by CCK-8 assay; type: functional, cell-based; conditions: time 5.0 day
MDA-MB-468 [13] = assay: Cytotoxicity against human MDA-MB-468 cells assessed as cell viability measured after 7 days by CCK-8 assay; type: functional; conditions: MDA-MB-468, 168 h, time 7 day
[14] = target: T2, von Hippel-Lindau disease tumor suppressor/Protein arginine N-methyltransferase 5; assay: PROTAC activity at PRMT5/VHL in human MDA-MB-468 cells assessed as relative protein level at 5 uM measured after 24 hrs by Western blot analysis; type: cell-based
[15] = target: T1, von Hippel-Lindau disease tumor suppressor/Methylosome protein WDR77; assay: PROTAC activity at MEP50/VHL in human MDA-MB-468 cells assessed as relative protein level at 0.5 uM measured after 24 hrs by Western blot analysis; type: cell-based
[16] = target: T2, von Hippel-Lindau disease tumor suppressor/Protein arginine N-methyltransferase 5; assay: PROTAC activity at PRMT5/VHL in human MDA-MB-453 cells assessed as degradation at 0.5 uM after 3 days by Western blot analysis; type: cell-based; conditions: time 3.0 day
[17] = target: T2, von Hippel-Lindau disease tumor suppressor/Protein arginine N-methyltransferase 5; assay: PROTAC activity at PRMT5/VHL in human MDA-MB-468 cells assessed as degradation pretreated with GSKi (EPZ015666) followed by treated at 5 uM of compound after 24 hrs by Western blot analysis; type: cell-based
MDA-MB-453 = assay: Growth inhibition of human MDA-MB-453 cells assessed as cell viability measured after 5 days by CCK-8 assay; type: functional, cell-based; conditions: time 5.0 day
[18] = PROTAC activity at PRMT5/VHL in human PNT2 cells assessed as degradation at 0.5 to 5 uM after 3 days by Western blot analysis; conditions: dose 0.5-5 µM, time 3.0 day
[19] = target: T2, von Hippel-Lindau disease tumor suppressor/Protein arginine N-methyltransferase 5; assay: PROTAC activity at […]/VHL in human MDA-MB-468 cells assessed as relative protein level at 0.5 uM measured after 24 hrs by Western blot analysis; type: cell-based
[20] = target: T2, von Hippel-Lindau disease tumor suppressor/Protein arginine N-methyltransferase 5; assay: PROTAC activity at PRMT5/VHL in human MDA-MB-468 cells assessed as degradation at 2 uM by Western blot analysis; type: cell-based; conditions: time 3-48 hrs
[21] = target: T1, von Hippel-Lindau disease tumor suppressor/Methylosome protein WDR77; assay: PROTAC activity at MEP50/VHL in VHL KO human MDA-MB-468 cells assessed as degradation at 0.5 uM of compound after 24 hrs by Western blot analysis; type: cell-based
[22] = target: T2, von Hippel-Lindau disease tumor suppressor/Protein arginine N-methyltransferase 5; assay: PROTAC activity at PRMT5/VHL in human MDA-MB-468 cells assessed as downregulation of PRMT5 at 2 uM of compound after 24 hrs by mass spectrometry (MS)-based global proteomic study; type: cell-based
[23] = target: T1, von Hippel-Lindau disease tumor suppressor/Methylosome protein WDR77; assay: PROTAC activity at MEP50/VHL in human MDA-MB-468 cells assessed as relative protein level at 5 uM measured after 24 hrs by Western blot analysis; type: cell-based
[24] = target: T2, von Hippel-Lindau disease tumor suppressor/Protein arginine N-methyltransferase 5; assay: PROTAC activity at PRMT5/VHL in human MCF-10A cells assessed as degradation at 0.5 to 5 uM after 3 days by Western blot analysis; type: cell-based; conditions: dose 0.5-5 µM, time 3.0 day
[25] = target: T2, von Hippel-Lindau disease tumor suppressor/Protein arginine N-methyltransferase 5; assay: PROTAC activity at PRMT5/VHL in human MDA-MB-231 cells assessed as degradation at 0.5 uM after 3 days by Western blot analysis; type: cell-based; conditions: time 3.0 day
[26] = target: T1, von Hippel-Lindau disease tumor suppressor/Methylosome protein WDR77; assay: PROTAC activity at MEP50/VHL in human PNT2 cells assessed as degradation at 0.5 to 5 uM after 3 days by Western blot analysis; type: cell-based; conditions: dose 0.5-5 µM, time 3.0 day
[27] = target: T1, von Hippel-Lindau disease tumor suppressor/Methylosome protein WDR77; assay: PROTAC activity at MEP50/VHL in human MDA-MB-453 cells assessed as degradation at 0.5 uM after 3 days by Western blot analysis; type: cell-based; conditions: time 3.0 day
[28] = target: T1, von Hippel-Lindau disease tumor suppressor/Methylosome protein WDR77; assay: PROTAC activity at MEP50/VHL in human PC-3 cells assessed as degradation at 0.004 to 2.5 uM after 7 hrs by Western blot analysis; type: cell-based; conditions: dose 0.004-2.5 µM
MDA-MB-468 [29] = assay: Inhibition of colony formation in human MDA-MB-468 cells incubated for 16 days by crystal violet staining based analysis; type: functional, cell-based; conditions: time 16.0 day
[30] = target: T2, von Hippel-Lindau disease tumor suppressor/Protein arginine N-methyltransferase 5; assay: PROTAC activity at PRMT5/VHL in human MDA-MB-231 cells assessed as degradation at 5 uM after 3 days by Western blot analysis; type: cell-based; conditions: time 3.0 day
[31] = target: T1, von Hippel-Lindau disease tumor suppressor/Methylosome protein WDR77; assay: PROTAC activity at MEP50/VHL in human MDA-MB-453 cells assessed as degradation at 5 uM after 3 days by Western blot analysis; type: cell-based; conditions: time 3.0 day
BT-549 = assay: Growth inhibition of human BT-549 cells assessed as cell viability measured after 5 days by CCK-8 assay; type: functional, cell-based; conditions: time 5.0 day

Cc1ncsc1-c1ccc([C@H](CC(=O)NCCOCCOCCOCCOCCOCCC(=O)N2CCC(Nc3cc(C(=O)NC[C@H](O)CN4CCc5ccccc5C4)ncn3)CC2)NC(=O)[C@@H]2C[C@@H](O)CN2C(=O)[C@@H](NC(=O)C2(F)CC2)C(C)(C)C)cc1
100%: Activity [18] | Activity [24] | Activity [26]
active: inhibition (PC-3) | Activity [2] | Activity [3] | Activity [4] | Activity [5] | Activity [8] | Activity [9] | Activity [12] | growth inhibition (GI) (MDA-MB-231) | Activity [14] | Activity [15] | Activity [16] | growth inhibition (GI) (MDA-MB-453) | Activity [19] | Activity [20] Time-dependent-effect | Activity [22] | Activity [23] | Activity [25] | Activity [27] | Activity [28] | Activity (MDA-MB-468 [29]) | Activity [30] | Activity [31] | growth inhibition (GI) (BT-549)
Non-toxic: Activity (MCF-10A)
17.5 µM: Cmax [1]
5.6 µM: GI50 (MDA-MB-468 [13])
0.2 µM: concentration at 8 h [7]
inactive: Activity [6] | Activity [10] Not active; Complete Rescue Not Observed - Due To Incomplete Vhl Ko | Activity [11] | Activity [17] | Activity [21] Not active; Complete Rescue Not Observed - Due To Incomplete Vhl Ko

Source: ChEMBL document CHEMBL6109159, “Discovery of a Potent and Selective Protein Arginine Methyltransferase 5 (PRMT5) PROTAC Degrader” (J Med Chem, 2025)
